From article PMC8713283 (Journal of Medicinal Chemistry, 2021) come the findings set out here.

Like-named read-outs stand apart in the source and are kept apart here.

For one data set, the system named is P-gp (human MDR1). Put plainly: in vitro. The following applies: dog; for Papp A→B at 5 µM / Papp B→A at 5 µM: MDCK-MDR1; for efflux ratio at 5 µM: MDCK-MDR1, Efflux ratio B-A/A-B, MDCK-MDR1, 5 µM, N = 2.
Data set [1] in a line: Log D(dec/w) shake flask partition coefficient. Format: physicochemical. The following applies: 1,9-decadiene/PBS; 1,9-decadiene and PBS pH 7.4 shake flask partition coefficient.
The target in data set [2] is T1, VHL (VCB, VHL:ElonginC:ElonginB) (Homo sapiens, UniProt P40337).
T1 construct: His6 (N, cleaved yes); made in house; host or cells: Escherichia coli
As to the kind of experiment: FP competition binding, binary binding to VHL.

For data set [3] the following is noted: human.
The conditions of data set [4]: LPEester – LPEamide by amide–ester matched pairs.
The next data set in a line: in vitro. As to conditions: PAMPA. (In PAMPA a lipid-coated filter parts donor from acceptor wells.)
[5] abbreviates: compound alone to VHL, FP competition with FAM-HIF-1α peptide, mean ± SEM, read-out: Kd binary.
For Plasma stability in this document: time not given here.

With `Cc1ncsc1-c1ccc(CNC(=O)[C@@H]2C[C@@H](O)CN2C(=O)[C@@H](NC(=O)CCCCCNC(=O)Cc2ccccc2)C(C)(C)C)cc1` [Compound 3, (2S,4R)-1-((S)-3,3-Dimethyl-2-(6-(2-phenylacetamido)hexanamido)butanoyl)-4-hydroxy-N-(4-(4-methylthiazol-5-yl)benzyl)pyrrolidine-2-carboxamide], in the data set with P-gp (human MDR1), the apparent permeability from apical to basolateral (Papp A→B) – broadly, how fast a substance crosses the layer from the apical side – at 5 µM was 7 nm/s; the Papp B→A (as a rule, the apparent permeability from the basolateral to the apical side of a cell layer) at 5 µM worked out at 84 nm/s; the efflux ratio (commonly the permeability from basolateral to apical divided by that in the opposite direction, in the common usage) at 5 µM worked out at 12. In data set [1], this molecule yielded a logD hydrocarbon water of -1.5. The Kd – broadly, the equilibrium constant for the complex coming apart – in data set [2] (setting [5]) came to 0.119 µM. In data set [3], this molecule returned a Plasma stability of 130 ± 3%.
With `Cc1ncsc1-c1ccc(CNC(=O)[C@@H]2C[C@@H](O)CN2C(=O)[C@@H](NC(=O)CCCCCNC(=O)CC(c2ccccc2)c2ccccc2)C(C)(C)C)cc1` [Compound 6, (2S,4R)-1-((S)-2-(6-(3,3-Diphenylpropanamido)hexanamido)-3,3-dimethylbutanoyl)-4-hydroxy-N-(4-(4-methylthiazol-5-yl)benzyl)pyrrolidine-2-carboxamide], in the data set with P-gp (human MDR1), the Papp A→B at 5 µM amounted to 1 nm/s, the Papp B→A at 5 µM turned out to be 185 nm/s and the efflux ratio at 5 µM is 133. This molecule displayed a logD hydrocarbon water in data set [1] of -0.3. The molecule further registered a Plasma stability in data set [3] of 149 ± 9%.
`CCCCOc1ccc(-c2ccc(C(=O)NCCCCCC(=O)N[C@H](C(=O)N3C[C@H](O)C[C@H]3C(=O)NCc3ccc(-c4scnc4C)cc3)C(C)(C)C)cc2)cc1` [Compound 7, (2S,4R)-1-((S)-2-(6-(4′-Butoxy-[1,1′-biphenyl]-4-carboxamido)hexanamido)-3,3-dimethylbutanoyl)-4-hydroxy-N-(4-(4-methylthiazol-5-yl)benzyl)pyrrolidine-2-carboxamide] showed a Papp B→A at 5 µM in the data set on P-gp (human MDR1) of 2 nm/s. Besides, the logD hydrocarbon water in data set [1] amounted to 1. Also, the Plasma stability in data set [3] came out at 83 ± 14%.
Regarding `COCC(=O)OCCCCCC(=O)N[C@H](C(=O)N1C[C@H](O)C[C@H]1C(=O)NCc1ccc(-c2scnc2C)cc1)C(C)(C)C` [Compound 8, 6-(((S)-1-((2S,4R)-4-Hydroxy-2-((4-(4-methylthiazol-5-yl)benzyl)carbamoyl)pyrrolidin-1-yl)-3,3-dimethyl-1-oxobutan-2-yl)amino)-6-oxohexyl 2-methoxyacetate], in the data set on P-gp (human MDR1), the apical-to-basolateral permeability (Papp A→B) at 5 µM stood at 4 nm/s, the Papp B→A at 5 µM is 110 nm/s and the efflux ratio at 5 µM turned out to be 26. In addition, the ΔLPE in data set [4] was -0.2. In data set [1], this molecule gave a logD hydrocarbon water of -1.7. Also, in data set [3], the Plasma stability was 1 ± 0.4%.
Turning to `CCCC(=O)OCCCCCC(=O)N[C@H](C(=O)N1C[C@H](O)C[C@H]1C(=O)NCc1ccc(-c2scnc2C)cc1)C(C)(C)C` [Compound 9, 6-(((S)-1-((2S,4R)-4-Hydroxy-2-((4-(4-methylthiazol-5-yl)benzyl)carbamoyl)pyrrolidin-1-yl)-3,3-dimethyl-1-oxobutan-2-yl)amino)-6-oxohexyl Butyrate], in the data set on P-gp (human MDR1), the Papp A→B at 5 µM is 9 nm/s, the Papp B→A at 5 µM came to 470 nm/s and the efflux ratio at 5 µM came out at 55. This molecule also returned a ΔLPE in data set [4] of 1.1. Besides, the Papp – broadly, a coefficient for how fast a substance crosses the barrier – in “in vitro” came out at 65 nm/s. In addition, in data set [1], the logD hydrocarbon water was -0.5. In data set [3], this molecule had a Plasma stability of 13 ± 1%.
Turning to `Cc1ncsc1-c1ccc(CNC(=O)[C@@H]2C[C@@H](O)CN2C(=O)[C@@H](NC(=O)CCCCCOC(=O)Cc2ccccc2)C(C)(C)C)cc1` [Compound 10, 6-(((S)-1-((2S,4R)-4-Hydroxy-2-((4-(4-methylthiazol-5-yl)benzyl)carbamoyl)pyrrolidin-1-yl)-3,3-dimethyl-1-oxobutan-2-yl)amino)-6-oxohexyl 2-phenylacetate], the Kd in data set [2] (setting [5]) came out at 0.136 µM.
With `Cc1ncsc1-c1ccc(CNC(=O)[C@@H]2C[C@@H](O)CN2C(=O)[C@@H](NC(=O)CCCCCOC(=O)C2CCCCC2)C(C)(C)C)cc1` [Compound 11, 6-(((S)-1-((2S,4R)-4-Hydroxy-2-((4-(4-methylthiazol-5-yl)benzyl)carbamoyl)pyrrolidin-1-yl)-3,3-dimethyl-1-oxobutan-2-yl)amino)-6-oxohexyl cyclohexanecarboxylate], in the data set on P-gp (human MDR1), the Papp A→B at 5 µM stood at 3 nm/s, the Papp B→A at 5 µM stood at 356 nm/s and the efflux ratio at 5 µM is 142. In data set [4], the ΔLPE turned out to be 1.8. The same molecule showed a logD hydrocarbon water in data set [1] of 1.1. This molecule yielded a Plasma stability in data set [3] of 14 ± 1%.
On to `Cc1ncsc1-c1ccc(CNC(=O)[C@@H]2C[C@@H](O)CN2C(=O)[C@@H](NC(=O)CCCCCOC(=O)CC23CC4CC(CC(C4)C2)C3)C(C)(C)C)cc1` [Compound 12, 6-(((S)-1-((2S,4R)-4-Hydroxy-2-((4-(4-methylthiazol-5-yl)benzyl)carbamoyl)pyrrolidin-1-yl)-3,3-dimethyl-1-oxobutan-2-yl)amino)-6-oxohexyl 2-(adamantan-1-yl)acetate], for which the Papp B→A at 5 µM in the data set on P-gp (human MDR1) was determined as 45 nm/s. Besides, in data set [4], the ΔLPE was found to be 1.8. The molecule further registered a logD hydrocarbon water in data set [1] of 2.4. Also, the Plasma stability in data set [3] was 80 ± 11%.
`Cc1ncsc1-c1ccc(CNC(=O)[C@@H]2C[C@@H](O)CN2C(=O)[C@@H](NC(=O)CCCCCOC(=O)CC(c2ccccc2)c2ccccc2)C(C)(C)C)cc1` [Compound 13, 6-(((S)-1-((2S,4R)-4-Hydroxy-2-((4-(4-methylthiazol-5-yl)benzyl)carbamoyl)pyrrolidin-1-yl)-3,3-dimethyl-1-oxobutan-2-yl)amino)-6-oxohexyl 3,3-diphenylpropanoate]: in the data set with P-gp (human MDR1), the Papp A→B at 5 µM worked out at 2 nm/s, the Papp B→A at 5 µM is 139 nm/s and the efflux ratio at 5 µM stood at 84. In data set [4], the ΔLPE is reported as 1.6. The logD hydrocarbon water in data set [1] amounted to 1.9. In addition, the Plasma stability in data set [3] amounted to 58 ± 6%.
For the molecule `Cc1ncsc1-c1ccc(CNC(=O)[C@@H]2C[C@@H](O)CN2C(=O)[C@@H](NC(=O)CCOCCNC(=O)Cc2ccccc2)C(C)(C)C)cc1` [Compound 15, (2S,4R)-1-((S)-3,3-Dimethyl-2-(3-(2-(2-phenylacetamido)ethoxy)propanamido)butanoyl)-4-hydroxy-N-(4-(4-methylthiazol-5-yl)benzyl)pyrrolidine-2-carboxamide], in the data set with P-gp (human MDR1), the Papp A→B at 5 µM stood at 4 nm/s, the Papp B→A at 5 µM was 46 nm/s and the efflux ratio at 5 µM amounted to 13. In addition, the logD hydrocarbon water in data set [1] is -1.4. Further, in data set [2] (setting [5]), the Kd was found to be 0.171 ± 0.014 µM. In data set [3], the Plasma stability is listed as 103 ± 14%.
The molecule `Cc1ncsc1-c1ccc(CNC(=O)[C@@H]2C[C@@H](O)CN2C(=O)[C@@H](NC(=O)CCOCCOCCNC(=O)Cc2ccccc2)C(C)(C)C)cc1` [Compound 16, (2S,4R)-1-((S)-14-(tert-Butyl)-2,12-dioxo-1-phenyl-6,9-dioxa-3,13-diazapentadecan-15-oyl)-4-hydroxy-N-(4-(4-methylthiazol-5-yl)benzyl)pyrrolidine-2-carboxamide] had a Papp B→A at 5 µM in the data set with P-gp (human MDR1) of 33 nm/s. Besides, in data set [1], the logD hydrocarbon water is -2.3. Besides, the Kd in data set [2] (setting [5]) is 0.172 ± 0.017 µM. In addition, the Plasma stability in data set [3] amounted to 151 ± 30%.
As to `Cc1ncsc1-c1ccc(CNC(=O)[C@@H]2C[C@@H](O)CN2C(=O)[C@@H](NC(=O)CCOCCOCCOCCNC(=O)Cc2ccccc2)C(C)(C)C)cc1` [Compound 17, (2S,4R)-1-((S)-17-(tert-Butyl)-2,15-dioxo-1-phenyl-6,9,12-trioxa-3,16-diazaoctadecan-18-oyl)-4-hydroxy-N-(4-(4-methylthiazol-5-yl)benzyl)pyrrolidine-2-carboxamide], the Papp B→A at 5 µM in the data set on P-gp (human MDR1) came out at 20 nm/s. The molecule further showed a logD hydrocarbon water in data set [1] of -1.9. Further, the Kd in data set [2] (setting [5]) was 0.138 µM. The Plasma stability in data set [3] came to 133 ± 18%.
As to `Cc1ncsc1-c1ccc(CNC(=O)[C@@H]2C[C@@H](O)CN2C(=O)[C@@H](NC(=O)CCOCCOC(=O)Cc2ccccc2)C(C)(C)C)cc1` [Compound 18, 2-(3-(((S)-1-((2S,4R)-4-Hydroxy-2-((4-(4-methylthiazol-5-yl)benzyl)carbamoyl)pyrrolidin-1-yl)-3,3-dimethyl-1-oxobutan-2-yl)amino)-3-oxopropoxy)ethyl 2-phenylacetate], the Kd is 0.232 ± 0.047 µM in data set [2] and roughly 0.2 µM in data set [2] (setting [5]).
In the case of `Cc1ncsc1-c1ccc(CNC(=O)[C@@H]2C[C@@H](O)CN2C(=O)[C@@H](NC(=O)CCOCCOCCOC(=O)Cc2ccccc2)C(C)(C)C)cc1` [Compound 19, 2-(2-(3-(((S)-1-((2S,4R)-4-Hydroxy-2-((4-(4-methylthiazol-5-yl)benzyl)carbamoyl)pyrrolidin-1-yl)-3,3-dimethyl-1-oxobutan-2-yl)amino)-3-oxopropoxy)ethoxy)ethyl 2-phenylacetate], the Kd in data set [2] (setting [5]) was 0.197 ± 0.027 µM.
On the same count and under the same terms, the value for `Cc1ncsc1-c1ccc(CNC(=O)[C@@H]2C[C@@H](O)CN2C(=O)[C@@H](NC(=O)CCOCCOCCOCCOC(=O)Cc2ccccc2)C(C)(C)C)cc1` [Compound 20, (S)-14-((2S,4R)-4-Hydroxy-2-((4-(4-methylthiazol-5-yl)benzyl)carbamoyl)pyrrolidine-1-carbonyl)-15,15-dimethyl-12-oxo-3,6,9-trioxa-13-azahexadecyl 2-phenylacetate] was 0.144 µM.
